In the METLIN SMRT retention time set (Domingo-Almenara et al. 2019) one finds RP-LC retention time data, which are given here for 33 compounds.

Molecules are shown by their SMILES.

A short description of the data set: gradient 5% acetonitrile 3 min, to 50% in 2 min, to 85% in 15 min, held 3 min, 100 µL/min. The conditions noted are these: column: Zorbax Extend-C18 2.1 x 50 mm; eluents: water / acetonitrile, 0.1% formic acid. An outline of the steps: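 The mobile phases were water and acetonitrile, each with 0.1% formic acid, pumped at 100 μL/min through a Zorbax Extend-C18 column (2.1 × 50 mm, 1.8 μm). Pure standards were injected as mixtures of ~100 molecules and detected by a quadrupole time-of-flight mass spectrometer in positive and negative ionization mode. Retention time came from computationally picked adduct peaks, each inspected by hand.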
In turn, `CCOc1ccc(S(=O)(=O)c2ccc(C)cc2)c2c1no[n+]2[O-]` showed an RP-LC retention time of 1050 s.
The compound `Cc1nn(-c2ccc(Cl)cc2)c2sc(C(=O)O)cc12` showed an RP-LC retention time of 1010 s.
`CCOC(=O)C1CCN(C(=O)C2CCCN2S(=O)(=O)c2cc3c(cc2Cl)NC(=O)CO3)CC1` (stereo not drawn) gave an RP-LC retention time of 710 s.
In the case of `O=C(Nc1ccccc1F)N1CCC(n2cnc3cc(Cl)ccc3c2=O)CC1` it was 811 s; in that of `CN1C(=C=Cc2cc(I)c(O)c(I)c2)C(C)(C)c2ccccc21`, 890 s.
On to `CCCN1C(=O)COc2ccc(-c3csc(NC(=O)COc4ccc(Cl)cc4Cl)n3)cc21`, for which the RP-LC retention time was found to be 1210 s.
Turning to `Cc1ccc(NC(=O)NCC2CCOCC2)c(Cl)c1`, the RP-LC retention time is 720 s.
Turning to `O=C(NC1CC1)c1ccc(OCC2CCN(C(=O)c3ccccc3C(F)(F)F)CC2)cc1`, the RP-LC retention time stood at 836 s.
The value for `Cc1cc(N2CCN(C(=O)Nc3ccc(C)c(C)c3)CC2)nc(N2CCOCC2)n1` was 666 s; that for `CCC(C)NC(=O)C1c2cc(OC)c(OC)cc2C(=O)N(C)C1c1ccc(OC)c(OC)c1` (stereo not drawn) was 710 s.
As to `CC1Oc2ccc(S(=O)(=O)N3CCC(C(=O)NCCc4ccccc4)CC3)cc2NC1=O` (stereo not drawn), the RP-LC retention time is 792 s.
With `Cc1cccc2nnc(N3CCN(C(=O)c4ccc5c(c4)OCO5)CC3)n12`, the RP-LC retention time stood at 556 s.
In the case of `CCc1ccc(CNC(=O)c2cccc(C3CCCN(C(=O)NC)C3)c2)cc1` (stereo not drawn), the RP-LC retention time was 854 s.
In the case of `O=C(NCCOc1cccc(C(F)(F)F)c1)c1ccccc1Cl` it was 907 s; in that of `COc1ccc(CNC(=O)c2ccc3c(c2)OCO3)c(OC)c1`, 749 s.
In the case of `CCNC(=O)C1CCCN(c2nc3ncn(CC(=O)NCc4ccccc4Cl)c(=O)c3s2)C1` (stereo not drawn) it was 670 s.
The value for `CC1CCN(c2cc(N3CCN(C)CC3)ccc2NC(=O)c2cc(C#N)c[nH]2)CC1` was 595 s; that for `CC(C)c1csc(-c2csc(S(=O)(=O)NCc3ccc(N(C)C)cc3)c2)n1` was 930 s.
`CCc1ccc(NS(=O)(=O)c2cc3c(s2)CCN(C(=O)C2CCC2)C3)cc1`: the RP-LC retention time was 859 s.
In the case of `CCOc1ccc(-c2[nH]ncc2CN)cc1` it was 575 s; in that of `CC(=O)N[C@@H]1CN(C(=O)Cc2cccc3ccccc23)C[C@H]1CO`, 637 s; in that of `CCCOc1ccc(N2CCN(C(=O)c3cc(Cl)ccc3OC)CC2)nn1`, 670 s.
The value for `O=C(NCC1CCCO1)C1CCCN(c2ccnc(-c3ccccc3)n2)C1` (stereo not drawn) was 571 s.
Regarding `CCc1ccc(OCc2nc(CCN(C)C(=O)C3CCCC3)no2)cc1`, the RP-LC retention time amounted to 1020 s.
As for `CC(=O)Nc1ccc(C2(C(=O)NCc3ccco3)CCC2)cc1`, the RP-LC retention time worked out at 691 s.
`Cc1cc(C)n(CC(=O)N2CCN(c3ccccc3)CC2)c1-c1nc(C2CC2)no1`: the RP-LC retention time worked out at 932 s.
Compound `CCOC(=O)Cn1c(C2CC(=O)N(Cc3ccccc3)C2)nc2ccccc21` (stereo not drawn) gave an RP-LC retention time of 749 s.
In the case of `CCOC(=O)c1c(C)oc2nc(C)nc(NCCCN3CCN(c4ccc(F)cc4)CC3)c12` it was 738 s; in that of `CCCCN(CCCC)c1nc(-c2ccccc2)nc2ccccc12`, 976 s.
`O=C(NC1CCN(Cc2ccccc2)CC1)c1cn2cc(Cl)ccc2n1`: the RP-LC retention time is 610 s.
In turn, `Clc1ccc(-c2nc(NCc3cccs3)c3ccccc3n2)cc1` had an RP-LC retention time of 842 s.
The value for `CN(C)S(=O)(=O)N(CC(=O)Nc1cc(C(F)(F)F)ccc1Cl)c1ccccc1` was 1090 s; that for `CC1(C(=O)NCc2ccc(F)c(Cl)c2)Oc2cccnc2NC1=O` (stereo not drawn) was 730 s.
